Test results: publication PMC12294558, “New 1,2,4-Triazole Derivatives with a N-Mannich Base Structure Based on a 4,6-Dimethylpyridine Scaffold as Anticancer Agents: Design, Synthesis, Biological Evaluation, and Molecular Modeling” (International Journal of Molecular Sciences, 2025)

Legend:
[1] = tested on: HT-29 cells; assay: MTT viability assay, colorectal cancer cells HT-29; format: cell-based, human; details: for SI, HT-29: CC50 CCD 841 CoTr / CC50 HT-29; for CC50: Homo sapiens, HT-29, MTT, 24 h, read-out: CC50 ± SD, HT-29
Procedure: (§1) The cytotoxic effects of ten newly synthesized N-Mannich bases were assessed on the normal human intestinal epithelium (CCD 841 CoTr) and cancer cell lines: gastric cancer (EPG) and four colorectal cancer lines (Caco-2, LoVo, LoVo/Dx, and HT-29). Cell viability was evaluated using the MTT assay in accordance with Annex C of ISO 10993-5 [33].
(§2) The biological activity of the newly synthesized compounds was assessed in the context of anticancer activity. For this purpose, several gastrointestinal cancer lines were selected: gastric cancer (EPG 257, which belongs to the collection of the Laboratory of Cell Culture and Advanced Therapy at the University of Environmental and Life Sciences in Wrocław), and four colorectal cancer cell lines (LoVo, Caco-2, and HT-29) were obtained from the European Collection of Authenticated Cell Cultures (ECACC) and were delivered by Sigma-Aldrich, a certified distributor for the biobank. Additionally, LoVo cells were used to develop a doxorubicin-resistant subline, referred to as LoVo/Dx. Resistance was induced through gradual adaptation to increasing concentrations of doxorubicin, starting from 0.1 µg/mL and incrementally raised to 0.8 µg/mL. After reaching the maximum concentration, the cells were maintained in a medium containing 0.4 µg/mL doxorubicin for a period of three months to stabilize the resistant phenotype. […] The resulting LoVo/Dx subline, resistant to doxorubicin, was cultured in DMEM/F-12 medium and utilized in assays evaluating the effectiveness of novel compounds against multidrug-resistant cancer cells. […] The non-cancerous cell control was normal colonic epithelial cells (CCD 841 CoTr from American Type Culture Collection, (ATCC, Manassas, VA, USA)). Cell cultures were performed under standard conditions (5% CO2, 95% humidity, and 37 °C). Each cell line was cultured in the recommended medium: (1) HT-29 in McCoy’s 5a, (2) Caco-2 in Minimal Essential Medium (MEM, Biological Industries, Beit Haemek, Israel), (3) CCD 841 CoTr in Dulbecco’s Modified Eagle Medium (DMEM, Biological Industries, Beit Haemek, Israel), (4) LoVo in Dulbecco’s Modified Eagle Medium/F-12 (DMEM/F-12; Biological Industries, Beit Haemek, Israel), (5) LoVo/Dx in DMEM/F-12, and (6) EPG in DMEM. Culture media were supplemented with 10% fetal bovine serum (FBS, Sigma-Aldrich, Darmstadt, Germany) and antibiotics (penicillin and streptomycin; Sigma-Aldrich, Darmstadt, Germany). For assays, trypsinized (TrypLE solution, Thermo Fisher Scientific, Waltham, MA, USA) cells were seeded at appropriate densities of 10,000 cells per well for MTT and determination of apoptotic and necrotic cell numbers; 30,000 cells per well for the rhodamine accumulation assay; and 500,000 cells per well for ELISA tests.
(§3) The cytotoxicity of the compounds and drugs used as controls was assessed using the MTT assay. The assay also included a DMSO control. After seeding and allowing the cells to adhere overnight, they were treated with the tested compounds and drugs for another 24 h. After this time, the supernatant was removed, and a 1 mg/mL MTT solution was added for 2 h in 5% CO2, 95% humidity, at 37 °C. The supernatant was then removed, and isopropanol was added to dissolve the purple crystals over 30 min by shaking. Absorbance was measured at 570 nm in a Multiskan GO microplate reader (Thermo Fisher Scientific; Waltham, MA, USA). All reagents used for the assays were purchased from Sigma-Aldrich, Darmstadt, Germany.
(§4) Biological assays were performed in three independent replicates, each involving four samples. ELISA determinations were repeated three times.

[2] = tested on: LoVo/Dx cells; assay: MTT viability assay, doxorubicin-resistant LoVo/Dx; format: cell-based, human; details: for SI, LoVo/Dx: CC50 CCD 841 CoTr / CC50 LoVo/Dx; for CC50: Homo sapiens, LoVo/DX, MTT, 24 h, read-out: CC50 ± SD, LoVo/Dx
Procedure: as §1, §2, §3, §4

[3] = MTT viability assay, normal colonic epithelial cells; format: cell-based, human; details: human, CCD 841 CoTr normal colonic epithelial cells, Non-toxic = no toxicity in tested range 1–500 μM, read-out: CC50 ± SD, CCD 841 CoTr
Procedure: as §1, §2, §3, §4

[4] = tested on: EPG cells; assay: MTT viability assay, gastric cancer cells; format: cell-based, human; details: for SI, EPG: CC50 CCD 841 CoTr / CC50 EPG; for CC50: Homo sapiens, MTT, 24 h, read-out: CC50 ± SD, EPG
Procedure: as §1, §2, §3, §4

[5] = molecular target: T1, P-glycoprotein (LoVo cells) (Homo sapiens, UniProt P08183); assay: Rhodamine-123 accumulation assay in LoVo; format: cell-based; details: 50 µM, 24 h; versus untreated control
T1 construct: intracellular accumulation of rhodamine 123 (a fluorescent P-gp substrate analog) in P-gp-expressing cell lines (HT-29, LoVo, and LoVo/Dx); endogenous in cells; host or cells: HT-29, LoVo (ECACC via Sigma-Aldrich); LoVo/Dx (doxorubicin-selected subline of LoVo)
T1 sequence (P08183 whole entry): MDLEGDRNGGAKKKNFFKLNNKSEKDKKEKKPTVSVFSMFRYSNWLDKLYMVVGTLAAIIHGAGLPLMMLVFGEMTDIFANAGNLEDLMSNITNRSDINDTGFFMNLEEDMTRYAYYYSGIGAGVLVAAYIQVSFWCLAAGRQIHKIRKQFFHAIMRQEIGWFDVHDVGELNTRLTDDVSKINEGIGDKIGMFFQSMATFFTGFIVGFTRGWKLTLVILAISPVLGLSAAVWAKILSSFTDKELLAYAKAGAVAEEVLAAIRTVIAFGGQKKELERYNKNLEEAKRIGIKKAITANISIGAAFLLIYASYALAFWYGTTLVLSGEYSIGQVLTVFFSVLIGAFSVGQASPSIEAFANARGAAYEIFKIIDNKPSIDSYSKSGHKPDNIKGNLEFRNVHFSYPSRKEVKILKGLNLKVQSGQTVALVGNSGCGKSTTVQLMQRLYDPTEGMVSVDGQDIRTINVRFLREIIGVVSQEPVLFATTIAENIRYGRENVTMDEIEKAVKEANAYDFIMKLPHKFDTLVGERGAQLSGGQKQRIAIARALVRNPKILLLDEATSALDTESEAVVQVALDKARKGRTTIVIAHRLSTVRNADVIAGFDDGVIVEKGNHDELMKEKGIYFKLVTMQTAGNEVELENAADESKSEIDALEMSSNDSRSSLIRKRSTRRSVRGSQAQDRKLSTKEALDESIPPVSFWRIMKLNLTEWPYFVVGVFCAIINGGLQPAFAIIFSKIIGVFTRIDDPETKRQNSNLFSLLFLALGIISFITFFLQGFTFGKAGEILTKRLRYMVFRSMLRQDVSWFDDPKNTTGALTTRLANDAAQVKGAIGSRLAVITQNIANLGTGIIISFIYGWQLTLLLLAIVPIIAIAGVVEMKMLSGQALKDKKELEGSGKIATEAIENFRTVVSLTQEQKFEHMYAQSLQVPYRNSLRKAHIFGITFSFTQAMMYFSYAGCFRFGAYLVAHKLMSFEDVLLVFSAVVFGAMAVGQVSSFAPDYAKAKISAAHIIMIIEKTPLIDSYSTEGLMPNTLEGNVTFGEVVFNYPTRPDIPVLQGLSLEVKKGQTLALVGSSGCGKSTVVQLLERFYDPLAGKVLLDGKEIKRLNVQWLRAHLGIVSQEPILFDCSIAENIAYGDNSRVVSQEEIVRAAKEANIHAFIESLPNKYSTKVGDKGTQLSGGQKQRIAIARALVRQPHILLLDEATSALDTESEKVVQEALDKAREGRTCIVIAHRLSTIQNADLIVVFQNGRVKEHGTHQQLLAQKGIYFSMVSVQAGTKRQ
Text: This test measured the intracellular accumulation of rhodamine 123 (a fluorescent P-gp substrate analog) in P-gp-expressing cell lines (HT-29, LoVo, and LoVo/Dx). Following accumulation and efflux phases, the fluorescence of rhodamine 123 (Rh-123) was quantified using spectrofluorimetry. The results are illustrated in Figure 3. Verapamil, a calcium channel blocker, served as a positive control for P-gp inhibition due to its well-established ability to inhibit P-gp activity. Verapamil binds to P-gp, inhibiting its function, which increases the intracellular concentration of chemotherapeutic drugs and other P-gp substrates.
The activity was measured for cells treated with a 50 µM concentration of the compounds and drugs in the recommended media for each cell line (without FBS) in a volume of 100 µL for 24 h. In this test, verapamil served as the control. After the incubation period, a 10 mM Rhodamine-123 (Rh-123) solution was prepared in a 1:1 DMSO mixture. […] Fluorescence was measured at 485 nm excitation and 538 nm emission using a Biotek Synergy H1 microplate reader (Agilent Technologies, Inc., Santa Clara, CA, USA). […]
Results are expressed as the mean ± SD (standard deviation) relative to the respective control (E/E0), where E represents the mean result for the measured sample, and E0 represents the mean result for the control. […]

[6] = tested on: Caco-2 cells; assay: MTT viability assay, colorectal cancer cells Caco-2; format: cell-based, human; details: for SI, Caco-2: CC50 CCD 841 CoTr / CC50 Caco-2; for CC50: Homo sapiens, Caco-2, MTT, 24 h, read-out: CC50 ± SD, Caco-2
Procedure: as §1, §2, §3, §4

Row | Increase of Rh-123 accumulation, LoVo [5] [fold] | SMILES | SI, HT-29 [1] | CC50 [1] [µM] | SI, LoVo/Dx [2] | CC50 [2] [µM] | CC50 at 24 h [3] [µM] | SI, EPG [4] | CC50 [4] [µM] | SI, Caco-2 [6] | CC50 [6] [µM]
1 | 2.8 | Cc1cc(C)c(C(=O)NCc2nn(CN3CCN(c4cccc(Cl)c4)CC3)c(=S)n2-c2ccccc2)c(S)n1 [Compound 5, 4,6-dimethyl-N-[(4-phenyl-5-thioxo-2-{[4-(3-chlorophenyl)piperazinyl]methyl}-4,5-dihydro-1H-1,2,4-triazol-3-yl)methyl]-2-sulfanylpyridine-3-carboxamide] | 2.15 | 102 ± 2.7 | 1.20 | 184 ± 2.7 | 221 ± 2.4 | 2.66 | 83 ± 4.6 | 0.97 | 228 ± 5.2
2 | 2.55 | Cc1ccc(N2CCN(Cn3nc(CNC(=O)c4c(C)cc(C)nc4S)n(-c4ccccc4)c3=S)CC2)cc1 [Compound 6] | 3.16 | 123 ± 3.9 | 1.99 | 195 ± 5.7 | 388 ± 6.5 | 6.72 | 57.7 ± 5.4 | 5.16 | 75.1 ± 5.1
